{
  "source": "the supplement of paper PMC10307832",
  "experiment_in_all_cases": "relative viability (nuclei count vs DMSO), 5 days (fraction); higher = more cells survive",
  "key": {"AZD1208 + Phenformin": {"compound": "N[C@@H]1CCCN(c2c(/C=C3\\SC(=O)NC3=O)cccc2-c2ccccc2)C1 [AZD1208] + N=C(N)NC(=N)NCCc1ccccc1 [Phenformin] (partner 250 µM)", "procedure,_shortened": "(§1)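 Cells from lung cancer lines were seeded into 1536-well plates and, one day later, dosed by pin tool. Treatments were either a single drug or a fixed dose of an anchor drug with five library-drug doses (not always all listed) in √10 steps. After 5 days, nuclei were stained in a one-step fixation (final 0.05% Triton X-100, 1% formaldehyde, 1 ug/ml Hoechst) and counted on 4× images, and relative viability is the treated-to-vehicle nuclei ratio, as the median of duplicate plates.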"}, "XMD14-99 + Dasatinib": {"compound": "CN1CCN(CC1)C2=CC(=C(C=C2)NC3=NC(=C(S3)C(=O)C4=C(C=CC=C4Cl)Cl)N)OC [XMD14-99] + Cc1nc(Nc2ncc(C(=O)Nc3c(C)cccc3Cl)s2)cc(N2CCN(CCO)CC2)n1 [Dasatinib] (partner 0.075 µM)", "procedure,_shortened": "as §1"}, "AZD1208 + Foretinib": {"compound": "N[C@@H]1CCCN(c2c(/C=C3\\SC(=O)NC3=O)cccc2-c2ccccc2)C1 [AZD1208] + COc1cc2c(Oc3ccc(NC(=O)C4(C(=O)Nc5ccc(F)cc5)CC4)cc3F)ccnc2cc1OCCCN1CCOCC1 [Foretinib] (partner 0.25 µM)", "procedure,_shortened": "as §1"}, "XMD14-99 + Alpelisib": {"compound": "CN1CCN(CC1)C2=CC(=C(C=C2)NC3=NC(=C(S3)C(=O)C4=C(C=CC=C4Cl)Cl)N)OC [XMD14-99] + Cc1nc(NC(=O)N2CCC[C@H]2C(N)=O)sc1-c1ccnc(C(C)(C)C(F)(F)F)c1 [Alpelisib] (partner 2 µM)", "procedure,_shortened": "as §1"}},
  "data": [
    {"cell line": "CAL-12T", "values": [
      {"measurement": "relative viability", "setting": "AZD1208 + Phenformin; first compound 0.08 µM", "result": 0.517},
      {"measurement": "relative viability", "setting": "AZD1208 + Phenformin; first compound 0.253 µM", "result": 0.698},
      {"measurement": "relative viability", "setting": "AZD1208 + Phenformin; first compound 0.8 µM", "result": 0.557},
      {"measurement": "relative viability", "setting": "AZD1208 + Phenformin; first compound 2.53 µM", "result": 0.522},
      {"measurement": "relative viability", "setting": "AZD1208 + Phenformin; first compound 8 µM", "result": 0.576},
      {"measurement": "relative viability", "setting": "XMD14-99 + Dasatinib; first compound 0.08 µM", "result": 0.34},
      {"measurement": "relative viability", "setting": "XMD14-99 + Dasatinib; first compound 0.8 µM", "result": 0.449},
      {"measurement": "relative viability", "setting": "XMD14-99 + Dasatinib; first compound 2.53 µM", "result": 0.356},
      {"measurement": "relative viability", "setting": "XMD14-99 + Dasatinib; first compound 8 µM", "result": 0.248},
      {"measurement": "relative viability", "setting": "AZD1208 + Foretinib; first compound 0.08 µM", "result": 1.1},
      {"measurement": "relative viability", "setting": "AZD1208 + Foretinib; first compound 0.253 µM", "result": 1.28},
      {"measurement": "relative viability", "setting": "AZD1208 + Foretinib; first compound 0.8 µM", "result": 1.04},
      {"measurement": "relative viability", "setting": "AZD1208 + Foretinib; first compound 2.53 µM", "result": 1.35},
      {"measurement": "relative viability", "setting": "AZD1208 + Foretinib; first compound 8 µM", "result": 1.38},
      {"measurement": "relative viability", "setting": "XMD14-99 + Alpelisib; first compound 0.08 µM", "result": 1.49},
      {"measurement": "relative viability", "setting": "XMD14-99 + Alpelisib; first compound 0.8 µM", "result": 1.13},
      {"measurement": "relative viability", "setting": "XMD14-99 + Alpelisib; first compound 2.53 µM", "result": 1.15},
      {"measurement": "relative viability", "setting": "XMD14-99 + Alpelisib; first compound 8 µM", "result": 1.03}
    ]},
    {"cell line": "COR-L23", "values": [
      {"measurement": "relative viability", "setting": "AZD1208 + Phenformin; first compound 0.08 µM", "result": 0.491},
      {"measurement": "relative viability", "setting": "AZD1208 + Phenformin; first compound 0.253 µM", "result": 0.469},
      {"measurement": "relative viability", "setting": "AZD1208 + Phenformin; first compound 0.8 µM", "result": 0.417},
      {"measurement": "relative viability", "setting": "AZD1208 + Phenformin; first compound 2.53 µM", "result": 0.419},
      {"measurement": "relative viability", "setting": "AZD1208 + Phenformin; first compound 8 µM", "result": 0.408},
      {"measurement": "relative viability", "setting": "XMD14-99 + Dasatinib; first compound 0.08 µM", "result": 0.556},
      {"measurement": "relative viability", "setting": "XMD14-99 + Dasatinib; first compound 0.8 µM", "result": 0.452},
      {"measurement": "relative viability", "setting": "XMD14-99 + Dasatinib; first compound 2.53 µM", "result": 0.337},
      {"measurement": "relative viability", "setting": "XMD14-99 + Dasatinib; first compound 8 µM", "result": 0.183},
      {"measurement": "relative viability", "setting": "AZD1208 + Foretinib; first compound 0.08 µM", "result": 0.961},
      {"measurement": "relative viability", "setting": "AZD1208 + Foretinib; first compound 0.253 µM", "result": 1.05},
      {"measurement": "relative viability", "setting": "AZD1208 + Foretinib; first compound 0.8 µM", "result": 0.966},
      {"measurement": "relative viability", "setting": "AZD1208 + Foretinib; first compound 2.53 µM", "result": 0.94},
      {"measurement": "relative viability", "setting": "AZD1208 + Foretinib; first compound 8 µM", "result": 0.97},
      {"measurement": "relative viability", "setting": "XMD14-99 + Alpelisib; first compound 0.08 µM", "result": 0.768},
      {"measurement": "relative viability", "setting": "XMD14-99 + Alpelisib; first compound 0.8 µM", "result": 0.749},
      {"measurement": "relative viability", "setting": "XMD14-99 + Alpelisib; first compound 2.53 µM", "result": 0.515},
      {"measurement": "relative viability", "setting": "XMD14-99 + Alpelisib; first compound 8 µM", "result": 0.301}
    ]},
    {"cell line": "COR-L 105", "values": [
      {"measurement": "relative viability", "setting": "AZD1208 + Phenformin; first compound 0.08 µM", "result": 0.476},
      {"measurement": "relative viability", "setting": "AZD1208 + Phenformin; first compound 0.253 µM", "result": 0.567},
      {"measurement": "relative viability", "setting": "AZD1208 + Phenformin; first compound 0.8 µM", "result": 0.478},
      {"measurement": "relative viability", "setting": "AZD1208 + Phenformin; first compound 8 µM", "result": 0.477},
      {"measurement": "relative viability", "setting": "XMD14-99 + Dasatinib; first compound 0.08 µM", "result": 0.345},
      {"measurement": "relative viability", "setting": "XMD14-99 + Dasatinib; first compound 0.8 µM", "result": 0.388},
      {"measurement": "relative viability", "setting": "XMD14-99 + Dasatinib; first compound 2.53 µM", "result": 0.255},
      {"measurement": "relative viability", "setting": "XMD14-99 + Dasatinib; first compound 8 µM", "result": 0.281},
      {"measurement": "relative viability", "setting": "AZD1208 + Foretinib; first compound 0.08 µM", "result": 0.849},
      {"measurement": "relative viability", "setting": "AZD1208 + Foretinib; first compound 0.253 µM", "result": 1.09},
      {"measurement": "relative viability", "setting": "AZD1208 + Foretinib; first compound 0.8 µM", "result": 1.05},
      {"measurement": "relative viability", "setting": "AZD1208 + Foretinib; first compound 8 µM", "result": 1},
      {"measurement": "relative viability", "setting": "XMD14-99 + Alpelisib; first compound 0.08 µM", "result": 0.851},
      {"measurement": "relative viability", "setting": "XMD14-99 + Alpelisib; first compound 0.8 µM", "result": 0.849},
      {"measurement": "relative viability", "setting": "XMD14-99 + Alpelisib; first compound 2.53 µM", "result": 0.823},
      {"measurement": "relative viability", "setting": "XMD14-99 + Alpelisib; first compound 8 µM", "result": 0.806}
    ]},
    {"cell line": "Calu-6", "values": [
      {"measurement": "relative viability", "setting": "AZD1208 + Foretinib; first compound 0.08 µM", "result": 0.861},
      {"measurement": "relative viability", "setting": "AZD1208 + Foretinib; first compound 0.253 µM", "result": 0.938},
      {"measurement": "relative viability", "setting": "AZD1208 + Foretinib; first compound 0.8 µM", "result": 0.946},
      {"measurement": "relative viability", "setting": "AZD1208 + Foretinib; first compound 2.53 µM", "result": 0.867},
      {"measurement": "relative viability", "setting": "AZD1208 + Foretinib; first compound 8 µM", "result": 0.747},
      {"measurement": "relative viability", "setting": "XMD14-99 + Alpelisib; first compound 0.08 µM", "result": 0.929},
      {"measurement": "relative viability", "setting": "XMD14-99 + Alpelisib; first compound 0.8 µM", "result": 0.959},
      {"measurement": "relative viability", "setting": "XMD14-99 + Alpelisib; first compound 2.53 µM", "result": 0.919},
      {"measurement": "relative viability", "setting": "XMD14-99 + Alpelisib; first compound 8 µM", "result": 0.67}
    ]},
    {"cell line": "ChaGo-K-1", "values": [
      {"measurement": "relative viability", "setting": "AZD1208 + Phenformin; first compound 0.08 µM", "result": 0.54},
      {"measurement": "relative viability", "setting": "AZD1208 + Phenformin; first compound 0.253 µM", "result": 0.569},
      {"measurement": "relative viability", "setting": "AZD1208 + Phenformin; first compound 0.8 µM", "result": 0.524},
      {"measurement": "relative viability", "setting": "AZD1208 + Phenformin; first compound 2.53 µM", "result": 0.475},
      {"measurement": "relative viability", "setting": "AZD1208 + Phenformin; first compound 8 µM", "result": 0.373},
      {"measurement": "relative viability", "setting": "XMD14-99 + Dasatinib; first compound 0.08 µM", "result": 0.564},
      {"measurement": "relative viability", "setting": "XMD14-99 + Dasatinib; first compound 0.8 µM", "result": 0.6},
      {"measurement": "relative viability", "setting": "XMD14-99 + Dasatinib; first compound 2.53 µM", "result": 0.51},
      {"measurement": "relative viability", "setting": "XMD14-99 + Dasatinib; first compound 8 µM", "result": 0.483},
      {"measurement": "relative viability", "setting": "AZD1208 + Foretinib; first compound 0.08 µM", "result": 0.855},
      {"measurement": "relative viability", "setting": "AZD1208 + Foretinib; first compound 0.253 µM", "result": 0.903},
      {"measurement": "relative viability", "setting": "AZD1208 + Foretinib; first compound 0.8 µM", "result": 0.808},
      {"measurement": "relative viability", "setting": "AZD1208 + Foretinib; first compound 2.53 µM", "result": 0.875},
      {"measurement": "relative viability", "setting": "AZD1208 + Foretinib; first compound 8 µM", "result": 0.73}
    ]}
  ]
}
